{"source": "patent US12509559B2", "about": "“Bacterial beta-lactamase responsive hydrogels” (Brown University, priority 2019, dated 2025)", "origin": "cited, not measured here", "conditions": "adamantane in β-cyclodextrin cavity", "data": [{"smiles": "C1C2CC3CC1CC(C2)C3", "note": "[adamantane]", "values": [{"measurement": "association constant, K", "result": "~10^5 M^−1"}]}]}
